Holding throughout (assay): relative viability (nuclei count vs DMSO), 5 days (fraction); higher = more cells survive
Compound in the assay “AT-7519 + Vorinostat”: O=C(NC1CCNCC1)c1n[nH]cc1NC(=O)c1c(Cl)cccc1Cl [AT-7519] + O=C(CCCCCCC(=O)Nc1ccccc1)NO [Vorinostat] (partner 1 µM)
In a few lines: (§1)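 Each reported value is a median over duplicate plates. It expresses relative viability: treated-well nuclei count divided by vehicle-well nuclei count. Lung cancer cell lines in 1536-well plates were dosed by pin tool a day after seeding, alone with one drug or with a fixed anchor-drug dose plus five library-drug doses (not always all listed) in √10 steps, and nuclei were counted after 5 days.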

Compound in the assay “AT-7519 + Decitabine”: O=C(NC1CCNCC1)c1n[nH]cc1NC(=O)c1c(Cl)cccc1Cl [AT-7519] + Nc1ncn([C@H]2C[C@H](O)[C@@H](CO)O2)c(=O)n1 [Decitabine] (partner 2 µM)
In a few lines:
as §1

Compound in the assay “AT-7519 + Dasatinib”: O=C(NC1CCNCC1)c1n[nH]cc1NC(=O)c1c(Cl)cccc1Cl [AT-7519] + Cc1nc(Nc2ncc(C(=O)Nc3c(C)cccc3Cl)s2)cc(N2CCN(CCO)CC2)n1 [Dasatinib] (partner 0.075 µM)
In outline:
as §1

Compound in assay [1]: C1=CC2=C(C=C(C(=C2N=C1)O)N=NC3=CC4=C(C=C3)C=C(C=C4)S(=O)(=O)O)S(=O)(=O)O + O=C(CCCCCCC(=O)Nc1ccccc1)NO [Vorinostat] (partner 1 µM)
In a few lines:
as §1

As for EKVX, the relative viability in the assay with AT-7519 + Vorinostat (first compound 0.01 µM) was 0.671; with AT-7519 + Vorinostat (first compound 0.03162 µM) it was 0.636; with AT-7519 + Vorinostat (first compound 0.3162 µM), 0.535; with AT-7519 + Vorinostat (first compound 1 µM) it was 0.786; in the assay with AT-7519 + Decitabine (first compound 0.01 µM), 0.331; in the assay with AT-7519 + Decitabine (first compound 0.03162 µM), 0.303. Also, the relative viability with AT-7519 + Decitabine (first compound 0.3162 µM) turned out to be 0.57; with AT-7519 + Decitabine (first compound 1 µM), 0.463; with AT-7519 + Dasatinib (first compound 0.01 µM), 0.526; in the assay with AT-7519 + Dasatinib (first compound 0.03162 µM) it was 0.388; with AT-7519 + Dasatinib (first compound 0.3162 µM), 0.346; with AT-7519 + Dasatinib (first compound 1 µM) it was 0.449. Further, the relative viability stood at 0.757 in assay [1] (first compound 0.08 µM); 0.694 in assay [1] (first compound 0.253 µM); 0.643 in assay [1] (first compound 0.8 µM); 0.76 in assay [1] (first compound 2.53 µM); 0.656 in assay [1] (first compound 8 µM).
Consider LXF-289, for which the relative viability with AT-7519 + Vorinostat (first compound 0.01 µM) came to 0.815; in the assay with AT-7519 + Vorinostat (first compound 0.03162 µM), 0.884; with AT-7519 + Vorinostat (first compound 0.3162 µM), 0.771; in the assay with AT-7519 + Vorinostat (first compound 1 µM), 0.773; with AT-7519 + Decitabine (first compound 0.01 µM), 0.383; in the assay with AT-7519 + Decitabine (first compound 0.03162 µM), 0.377. For the same cell line, the relative viability in the assay with AT-7519 + Decitabine (first compound 0.3162 µM) stood at 0.333; with AT-7519 + Decitabine (first compound 1 µM) it was 0.375; with AT-7519 + Dasatinib (first compound 0.01 µM), 0.219; with AT-7519 + Dasatinib (first compound 0.03162 µM), 0.232; with AT-7519 + Dasatinib (first compound 0.3162 µM) it was 0.222; with AT-7519 + Dasatinib (first compound 1 µM), 0.235. The relative viability in assay [1] (first compound 0.08 µM) worked out at 0.75; in assay [1] (first compound 0.253 µM), 0.719; in assay [1] (first compound 0.8 µM), 0.817; in assay [1] (first compound 2.53 µM) it was 0.704; in assay [1] (first compound 8 µM), 0.766.
ABC-1: the relative viability in the assay with AT-7519 + Vorinostat (first compound 0.01 µM) amounted to 1.16; with AT-7519 + Vorinostat (first compound 0.03162 µM) it was 1.14; in the assay with AT-7519 + Vorinostat (first compound 0.3162 µM), 1.01; in the assay with AT-7519 + Vorinostat (first compound 1 µM), 1.28; with AT-7519 + Decitabine (first compound 0.01 µM), 1.22; with AT-7519 + Decitabine (first compound 0.03162 µM) it was 1.08. Moreover, the relative viability came out at 0.859 with AT-7519 + Decitabine (first compound 0.3162 µM); 0.926 in the assay with AT-7519 + Decitabine (first compound 1 µM); 0.525 with AT-7519 + Dasatinib (first compound 0.01 µM); 0.617 with AT-7519 + Dasatinib (first compound 0.03162 µM); 0.398 with AT-7519 + Dasatinib (first compound 0.3162 µM); 0.262 with AT-7519 + Dasatinib (first compound 1 µM). The relative viability in assay [1] (first compound 0.08 µM) was 0.875; in assay [1] (first compound 0.253 µM), 1.12; in assay [1] (first compound 0.8 µM) it was 0.943; in assay [1] (first compound 2.53 µM), 1.49; in assay [1] (first compound 8 µM), 0.982.
On to NCI-H650, for which the relative viability with AT-7519 + Vorinostat (first compound 0.01 µM) was found to be 0.504; with AT-7519 + Vorinostat (first compound 0.03162 µM), 0.459; in the assay with AT-7519 + Vorinostat (first compound 0.3162 µM), 0.46; with AT-7519 + Vorinostat (first compound 1 µM), 0.599; in the assay with AT-7519 + Decitabine (first compound 0.01 µM), 0.387; with AT-7519 + Decitabine (first compound 0.03162 µM) it was 0.281. In addition, the relative viability is 0.335 in the assay with AT-7519 + Decitabine (first compound 0.3162 µM); 0.274 with AT-7519 + Decitabine (first compound 1 µM); 0.437 in the assay with AT-7519 + Dasatinib (first compound 0.01 µM); 0.423 in the assay with AT-7519 + Dasatinib (first compound 0.03162 µM); 0.465 in the assay with AT-7519 + Dasatinib (first compound 0.3162 µM); 0.488 with AT-7519 + Dasatinib (first compound 1 µM). For the same cell line, the relative viability in assay [1] (first compound 0.08 µM) came out at 0.435; in assay [1] (first compound 0.253 µM), 0.472; in assay [1] (first compound 0.8 µM) it was 0.416; in assay [1] (first compound 2.53 µM), 0.413; in assay [1] (first compound 8 µM), 0.175.

Source of the values: the supplement of paper PMC10307832.
